This is an account of results in patent US11667645B2, “Granzyme B directed imaging and therapy” (CytoSite Biopharma Inc., priority 2018, dated 2023).

As usually defined, the IC50 is the concentration needed to halve the response being measured.

The structures appear in SMILES notation.

Chain of Granzyme B (human lymphocytes) (P10144 21-247): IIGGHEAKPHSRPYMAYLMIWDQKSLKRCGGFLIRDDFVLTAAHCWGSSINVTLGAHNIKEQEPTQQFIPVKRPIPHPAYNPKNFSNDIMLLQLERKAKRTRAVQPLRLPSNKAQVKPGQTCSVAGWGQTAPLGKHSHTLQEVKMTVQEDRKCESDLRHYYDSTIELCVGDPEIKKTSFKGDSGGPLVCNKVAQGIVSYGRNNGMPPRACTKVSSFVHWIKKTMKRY

This test addresses Granzyme B (human lymphocytes) (Homo sapiens (Human), UniProt P10144). The test is described as follows: human Granzyme B biochemical assay. Conditions: Granzyme B (human lymphocytes) 5 nM, substrate Ac-IETD-AFC 200 μM, Cpd incubation with enzyme 30 mins, 22° C., read time 60 mins; read-out: IC50. The source says: The compounds of Formula I-VIII described above can be tested using the human Granzyme B biochemical assay provided below.
Materials: • 1. Granzyme B (human lymphocytes) Enzyme: Enzo Lifesciences, Cat #ALX-200-602-0010 • 2. Substrate (Ac-IETD-AFC): Enzo Lifesciences, Cat #ALX-260-110-M010 • 3. Standard inhibitor (Compound 20-Isomer3): Synthesized internally in TCG • 4. Dimethyl sulfoxide (DMSO): Sigma-Aldrich, Cat #41639 • 5. HEPES: Gibco, Cat #15630-080 • 6. Calcium chloride: Sigma-Aldrich, Cat #C-5080 • 7. Distilled water: Gibco, Cat #15230-162 • 8. Bovine serum albumin (BSA): Sigma-Aldrich, Cat #A3059 • 9. Black, clear bottom PDL plate (384 wells): Greiner bio-one, Cat #781946 • 10. Polypropylene plate (384 wells): Corning, Cat #3657 Assay Buffer Composition:
Compound Preparation: • 1. DMSO is added to the respective compound vial to make 10 mM Compound stock solution, which is stored at −20° C. • 2. 10 mM Compound stock solution is thawed and 1 mM DMSO stock solution is prepared by adding 45 μl of DMSO to 5 μl of 10 mM compound stock solution. • 3. 1 mM DMSO stock solution is serially diluted (3.16 fold) by adding 10 μl of 1 mM DMSO stock to 21.6 μl of DMSO and mixed well. 10 μl of the resulting solution is then added to 21.6 μl of DMSO and mixed well. This process is continued to create 11 dilution points for the assay standard inhibitor and 8 dilution points for test compounds in 384 well polypropylene plate. • 4. 2 μl of each dilution are dispensed in assay ready plate. • 5. Each well is then diluted 25 fold by adding 48 μl of assay buffer to 2 μl of compound in assay ready plate to make Compound working stock. Enzyme Preparation: • 1. Supplied Granzyme B (human lymphocytes) enzyme is reconstituted to 1 mg/ml (about 31.25 μM) and 1 μl aliquots are kept in −80° C. • 2. 1 μl aliquot is diluted to 625 nM by adding 49 μl of assay buffer containing 0.1% BSA and gently mixed. • 3. 10 nM enzyme working stock is prepared by adding assay buffer containing 0.1% BSA. Substrate Preparation: • 1. Supplied substrate (Ac-IETD-AFC) is reconstituted by adding DMSO to make 10 mM stock, aliquoted and stored in −80° C. • 2. 4 mM substrate mid stock is prepared by adding DMSO. • 3. Substrate working stock i.e. 800 μM is prepared by adding assay buffer. Assay Protocol: • 1. 10 μl of serially diluted Compound working stock (start dose 40 μM) is added from assay ready plate to assay plate according to the plate map. • 2. Positive control (40 μM of standard inhibitor) and negative control (4% DMSO buffer) are added to the respective wells. • 3. 20 μl of Enzyme working stock is added to assay plate and gently mixed. • 4. The plate is incubated at 22° C. for 30 mins and spun at 130 g for 1 minute. • 5. After incubation, 10 μl of Substrate working stock is added to respective wells and mixed (Assay plate is maintained in dark after substrate addition). • 6. The plate is incubated at 22° C. for 60 mins and spun at 130 g for 1 minute. • 7. Fluorescence read (RFU) (Ex: 400 nm/Em: 505 nm) is taken after 60 mins in EnVision Multimode plate reader. Final Assay Concentration:
Data Analysis: • 1. The RFU read is analyzed to calculate percent inhibition by normalizing with positive and negative controls taken as 100% and 0% effect respectively in Microsoft excel. • 2. Graph is generated by putting the analyzed data in GraphPad prism 5.0 software to get IC50 value for each compound.
On to `CC(=O)N[C@@H](CCC(=O)O)C(=O)N[C@H]1CCc2cccc3c2N(C1=O)[C@H](C(=O)NCc1c[nH]nn1)C3` [Compound C030, (S)-4-Acetylamino-4-{(2S,5S)-4-oxo-2-[(1H-[1,2,3]triazol-4-ylmethyl)-carbamoyl]-1,2,4,5,6,7-hexahydro-azepino[3,2,1-hi]indol-5-ylcarbamoyl}-butyric acid], for which the concentration for half-maximal inhibition (IC50) is > 5000 nM.

Turning to `Cc1ccc(C(=O)N[C@H](C(=O)N[C@H]2CCc3cccc4c3N(C2=O)[C@H](C(=O)NCc2c[nH]nn2)C4)C(C)C)cc1` [Compound C052, (2S,5S)-5-[(S)-3-Methyl-2-(4-methyl-benzoylamino)-butyrylamino]-4-oxo-1,2,4,5,6,7-hexahydro-azepino[3,2,1-hi]indole-2-carboxylic acid (1H-[1,2,3]triazol-4-ylmethyl)-amide], the IC50 fell in the range of 1 to 300 nM.

Take `CC[C@H](C)[C@H](NC(=O)COCCF)C(=O)N[C@H]1CCc2cccc3c2N(C1=O)[C@H](C(=O)NCc1ccn[nH]1)C3` [Compound C149, (2S,5S)-5-{(2S,3S)-2-[2-(2-Fluoro-ethoxy)-acetylamino]-3-methyl-pentanoylamino}-4-oxo-1,2,4,5,6,7-hexahydro-azepino[3,2,1-hi]indole-2-carboxylic acid (2H-pyrazol-3-ylmethyl)-amide]: the concentration for half-maximal inhibition (IC50) is > 5000 nM.

As to `CC[C@H](C)[C@H](NC(=O)Cc1csc2ccccc12)C(=O)N[C@H]1COc2cccc3c2N(C1=O)[C@H](C(=O)NCc1c[nH]nn1)C3` [Compound C146, (1S,8S)-8-[(2S,3S)-2-(2-Benzo[b]thiophen-3-yl-acetylamino)-3-methyl-pentanoylamino]-9-oxo-1,2,8,9-tetrahydro-7H-6-oxa-9a-aza-benzo[cd]azulene-1-carboxylic acid (1H-[1,2,3]triazol-4-ylmethyl)-amide], the IC50 lay in the range of 1 to 300 nM.

In the case of `CC(=O)N[C@H](C(=O)N[C@H]1CCc2cccc3c2N(C1=O)[C@H](C(=O)NCc1c[nH]nn1)C3)C1CC1` [Compound C081, (2S,5S)-5-((S)-2-Acetylamino-2-cyclopropyl-acetylamino)-4-oxo-1,2,4,5,6,7-hexahydro-azepino[3,2,1-hi]indole-2-carboxylic acid (1H-[1,2,3]triazol-4-ylmethyl)-amide], the IC50 lay within 301 to 1000 nM.

For `CC[C@H](C)[C@H](NC(=O)COCCF)C(=O)N[C@H]1CCc2cccc3c2N(C1=O)[C@H](C(=O)NCc1ccccc1C)C3` [Compound C127, (2S,5S)-5-{(2S,3S)-2-[2-(2-Fluoro-ethoxy)-acetylamino]-3-methyl-pentanoylamino}-4-oxo-1,2,4,5,6,7-hexahydro-azepino[3,2,1-hi]indole-2-carboxylic acid 2-methyl-benzylamide], the IC50 is > 5000 nM.

As to `CC[C@H](C)[C@H](NC(=O)COCCF)C(=O)N[C@H]1CCc2cccc3c2N(C1=O)[C@H](C(=O)NCCc1cnn[nH]1)C3` [Compound C120, (2S,5S)-5-{(2S,3S)-2-[2-(2-Fluoro-ethoxy)-acetylamino]-3-methyl-pentanoylamino}-4-oxo-1,2,4,5,6,7-hexahydro-azepino[3,2,1-hi]indole-2-carboxylic acid [2-(3H-[1,2,3]triazol-4-yl)-ethyl]-amide], the IC50 is > 5000 nM.

For the compound `CC(C)C[C@H](NC(=O)c1ccccc1)C(=O)N[C@H]1CCc2cccc3c2N(C1=O)[C@H](C(=O)NCc1c[nH]nn1)C3` [Compound C038, (2S,5S)-5-((S)-2-Benzoylamino-4-methyl-pentanoylamino)-4-oxo-1,2,4,5,6,7-hexahydro-azepino[3,2,1-hi]indole-2-carboxylic acid (1H-[1,2,3]triazol-4-ylmethyl)-amide], the half-inhibitory concentration (IC50) fell in the range of 301 to 1000 nM.

For `CC(C)[C@H](NC(=O)c1cccnc1)C(=O)N[C@H]1CCc2cccc3c2N(C1=O)[C@H](C(=O)NCc1c[nH]nn1)C3` [Compound C070, (2S,5S)-5-{(S)-3-Methyl-2-[(pyridine-3-carbonyl)-amino]-butyrylamino}-4-oxo-1,2,4,5,6,7-hexahydro-azepino[3,2,1-hi]indole-2-carboxylic acid (1H-[1,2,3]triazol-4-ylmethyl)-amide], the 50% inhibitory concentration (IC50) was 1 to 300 nM.

`O=C(Cc1csc2ccccc12)NCC(=O)N[C@H]1CCc2cccc3c2N(C1=O)[C@H](C(=O)NCc1c[nH]nn1)C3` [Compound C001, (2S,5S)-5-[2-(2-Benzo[b]thiophen-3-yl-acetylamino)-acetylamino]-4-oxo-1,2,4,5,6,7-hexahydro-azepino[3,2,1-hi]indole-2-carboxylic acid (1H-[1,2,3]triazol-4-ylmethyl)-amide]: the concentration for half-maximal inhibition (IC50) is > 5000 nM.

As for `CC(=O)N[C@H](C(=O)N[C@H]1CCc2cccc3c2N(C1=O)[C@H](C(=O)NCc1c[nH]nn1)C3)C1CCCC1` [Compound C077, (2S,5S)-5-((S)-2-Acetylamino-2-cyclopentyl-acetylamino)-4-oxo-1,2,4,5,6,7-hexahydro-azepino[3,2,1-hi]indole-2-carboxylic acid (1H-[1,2,3]triazol-4-ylmethyl)-amide], the IC50 was 1 to 300 nM.

Turning to `O=C(Cc1csc2ccccc12)N[C@@H](Cc1ccc(O)cc1)C(=O)N[C@H]1CCc2cccc3c2N(C1=O)[C@H](C(=O)NCc1c[nH]nn1)C3` [Compound C010, (2S,5S)-5-[(S)-2-(2-Benzo[b]thiophen-3-yl-acetylamino)-3-(4-hydroxy-phenyl)-propionylamino]-4-oxo-1,2,4,5,6,7-hexahydro-azepino[3,2,1-hi]indole-2-carboxylic acid (1H-[1,2,3]triazol-4-ylmethyl)-amide], the IC50 is > 5000 nM.

On to `CC[C@H](C)[C@H](NC(=O)COCCF)C(=O)N[C@H]1CCc2cccc3c2N(C1=O)[C@H](C(=O)NCB(O)O)C3` [Compound C170, {[((2S,5S)-5-{(2S,3S)-2-[2-(2-Fluoro-ethoxy)-acetylamino]-3-methyl-pentanoylamino}-4-oxo-1,2,4,5,6,7-hexahydro-azepino[3,2,1-hi]indole-2-carbonyl)-amino]-methyl}-boronic acid], for which the IC50 lay within 301 to 1000 nM.

Regarding `O=C(Cc1csc2ccccc12)N[C@@H](CO)C(=O)N[C@H]1CCc2cccc3c2N(C1=O)[C@H](C(=O)NCc1c[nH]nn1)C3` [Compound C007, (2S,5S)-5-[(S)-2-(2-Benzo[b]thiophen-3-yl-acetylamino)-3-hydroxy-propionylamino]-4-oxo-1,2,4,5,6,7-hexahydro-azepino[3,2,1-hi]indole-2-carboxylic acid (1H-[1,2,3]triazol-4-ylmethyl)-amide], the IC50 is > 5000 nM.

For the compound `CCC(CC)[C@H](NC(C)=O)C(=O)N[C@H]1CCc2cccc3c2N(C1=O)[C@H](C(=O)NCc1c[nH]nn1)C3` [Compound C074, (2S,5S)-5-((S)-2-Acetylamino-3-ethyl-pentanoylamino)-4-oxo-1,2,4,5,6,7-hexahydro-azepino[3,2,1-hi]indole-2-carboxylic acid (1H-[1,2,3]triazol-4-ylmethyl)-amide], the IC50 lay in the range of 1 to 300 nM.

For the compound `Cc1ccccc1C(=O)N[C@H](C(=O)N[C@H]1CCc2cccc3c2N(C1=O)[C@H](C(=O)NCc1c[nH]nn1)C3)C(C)C` [Compound C050, (2S,5S)-5-[(S)-3-Methyl-2-(2-methyl-benzoylamino)-butyrylamino]-4-oxo-1,2,4,5,6,7-hexahydro-azepino[3,2,1-hi]indole-2-carboxylic acid (1H-[1,2,3]triazol-4-ylmethyl)-amide], the half-inhibitory concentration (IC50) is 1 to 300 nM.
